Values of other authors as cited in patent US20100062066A1, “Formulations of Tetrahydropyridine Antiplatelet Agents for Parenteral or Oral Administration” (Acusphere, Inc, priority 2006, published 2010).

Tested on: platelet aggregation
Settings: background statement on clopidogrel enantiomers

Row | SMILES | anti-aggregation activity
1 | COC(=O)C(c1ccccc1Cl)N1CCc2sccc2C1 (single isomer, unassigned) [R-enantiomer] | does not exhibit any anti-aggregation activity
2 | COC(=O)[C@H](c1ccccc1Cl)N1CCc2sccc2C1 (single isomer, unassigned; enantiomer 2) [S-enantiomer, 2-(2-chlorophenyl)-2-(2,4,5,6,7,7a-tetrahydrothieno[3,2-c]pyridine)-5-yl-acetic acetic acid methyl ester] | biologically active
